Source: paper PMC8221158, “Novel pyrrolizines bearing 3,4,5-trimethoxyphenyl moiety: design, synthesis, molecular docking, and biological evaluation as potential multi-target cytotoxic agents” (Journal of Enzyme Inhibition and Medicinal Chemistry, 2021)

Assays:
[1] = molecular target: T1, Aurora A (Homo sapiens, UniProt O14965); assay: Kinase profiling test; assay type: biochemical; conditions: stated as inhibition
T1 sequence (O14965 1-403): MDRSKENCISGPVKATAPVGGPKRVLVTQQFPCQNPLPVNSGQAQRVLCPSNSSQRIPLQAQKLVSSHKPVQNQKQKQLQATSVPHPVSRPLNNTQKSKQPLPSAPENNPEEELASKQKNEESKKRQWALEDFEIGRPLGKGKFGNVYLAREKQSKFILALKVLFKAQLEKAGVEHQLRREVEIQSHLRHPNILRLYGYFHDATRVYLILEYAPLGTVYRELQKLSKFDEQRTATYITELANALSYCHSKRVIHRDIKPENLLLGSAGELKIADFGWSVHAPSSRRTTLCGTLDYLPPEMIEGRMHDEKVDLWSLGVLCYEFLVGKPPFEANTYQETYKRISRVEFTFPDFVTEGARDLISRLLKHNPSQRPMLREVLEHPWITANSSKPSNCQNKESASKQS
Method: The test was performed using the radiolabeled ATP determination method (KINEXUS Bioinformatics Corporation, Vancouver, Canada). The test was performed following the previous reports[13]^,[20].
The three compounds were tested at the same concentration (10 μM) against the same 20 kinases used in the previous report. The test was performed by KINEXUS Bioinformatics Corporation (Vancouver, Canada), following previous reports[13]^,[20].

[2] = system: MCF-7; conditions: MTT, 72 h; read-out: IC50 (µM ± SD) MCF-7; cited from earlier work
[3] = system: A2780; conditions: MTT, 72 h; read-out: IC50 (µM ± SD) A2780; cited from earlier work
[4] = system: normal MRC-5 cells; design: method as in PMID 31655429; conditions: 72 h; read-out: IC50 (µM ± SD) MRC-5; cited from earlier work
[5] = system: MCF-7, HCT116, and A2780 cancer cell lines; assay: MTT assay, three cancer cell lines taken together (average, overall range); assay type: cell-based, human; conditions: Homo sapiens; MCF-7, HCT116, A2780; read-out: Average of the three IC50 values against the three cancer cell lines
[6] = molecular target: T2, porcine tubulin (Sus scrofa, UniProt P02550+P02554); assay: Tubulin polymerisation fluorescence-based assay; assay type: biochemical; conditions: 3 μM, positive control (enhancer)
T2 construct: purchased Cytoskeleton Inc., Denver, CO BK011P
T2 sequence (P02550 whole entry): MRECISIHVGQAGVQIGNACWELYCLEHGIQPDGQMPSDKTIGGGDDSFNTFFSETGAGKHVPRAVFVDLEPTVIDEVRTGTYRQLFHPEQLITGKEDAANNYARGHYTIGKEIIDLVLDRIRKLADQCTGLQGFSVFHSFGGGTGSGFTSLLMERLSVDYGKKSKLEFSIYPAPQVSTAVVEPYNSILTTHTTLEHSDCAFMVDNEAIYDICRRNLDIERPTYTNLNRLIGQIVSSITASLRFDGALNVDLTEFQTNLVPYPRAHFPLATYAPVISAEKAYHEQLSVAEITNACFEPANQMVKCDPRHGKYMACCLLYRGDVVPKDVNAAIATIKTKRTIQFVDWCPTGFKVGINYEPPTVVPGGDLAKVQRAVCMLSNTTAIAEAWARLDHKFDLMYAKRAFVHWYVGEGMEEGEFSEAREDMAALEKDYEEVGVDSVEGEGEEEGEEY
T2 sequence (P02554 whole entry): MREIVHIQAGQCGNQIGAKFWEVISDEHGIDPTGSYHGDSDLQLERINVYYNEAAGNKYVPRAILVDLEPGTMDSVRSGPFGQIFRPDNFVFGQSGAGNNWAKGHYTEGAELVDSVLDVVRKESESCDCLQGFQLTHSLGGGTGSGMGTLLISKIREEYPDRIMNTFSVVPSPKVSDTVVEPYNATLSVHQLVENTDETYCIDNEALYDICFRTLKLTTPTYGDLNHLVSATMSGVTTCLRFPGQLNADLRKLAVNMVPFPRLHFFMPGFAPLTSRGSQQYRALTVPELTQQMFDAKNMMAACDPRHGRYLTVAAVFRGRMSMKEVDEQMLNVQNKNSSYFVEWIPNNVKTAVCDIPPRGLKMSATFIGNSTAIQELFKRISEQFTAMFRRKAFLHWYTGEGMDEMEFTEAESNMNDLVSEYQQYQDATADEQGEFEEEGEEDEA
Method: The effect of compounds 16a,b,d on tubulin polymerisation was measured in vitro using tubulin polymerisation fluorescence-based assay (cytoskeleton, cat. BK011P, https://www.cytoskeleton.com/bk011p). The assay was performed following the previous report[22] and according to the manufacturer’s instructions. Briefly, 2 mg/mL porcine tubulin was dissolved in buffer 1 (80 mM PIPES, 2 mM MgCl2, 0.5 mM EGTA pH 6.9, 10 µM fluorescent reporter, 1 mM GTP, 15% glycerol) to a final concentration of […]. Then tubulin solution was transferred to a pre-warmed 96-well plate that contained the test compounds 16a,b,d (5 μM), paclitaxel (3 μM), CaCl2 (0.5 μM), and control buffer. The polymerisation of tubulin was monitored as fluorescence at 37 °C for 60 min. Relative fluorescence units (RFU) were determined at 360 nm for excitation and at 460 nm for emission using the Varioskan Flash spectral scanning multimode reader (Thermo Fisher Scientific, Roskilde, Denmark) at a reading speed of 1 cycle/min.
In the current study, the new compounds were designed bearing the trimethoxy phenyl moiety aiming to obtain new cytotoxic agents that can interfere with tubulin polymerisation in cancer cells. […] In this assay, light scattering by microtubules which is directly proportional to the concentration of the microtubule polymer was used as a measure of tubulin polymerisation. The study was performed using a fluorescence-based tubulin polymerisation assay kit (Cytoskeleton Inc., Denver, CO; Cat # BK011P) following the manufacturer’s instructions (https://www.cytoskeleton.com/bk011p) and according to the previous report.
Paclitaxel (3 μM) was used as a tubulin polymerisation enhancer (positive control, enhancer), while calcium chloride (CaCl2, 0.5 μM) was used as a positive control (inhibitor) as per the manufacturer’s instructions (https://www.cytoskeleton.com/pdf-storage/datasheets/bk011p.pdf). The vehicle was also used to evaluate the polymerisation when tubulin is incubated in the absence of the test compound. The effect of the selected compounds (5 μM) on tubulin polymerisation was evaluated and compared with those of the positive control. The results are represented in Figure 8.

[7] = system: HDAC3; conditions: cited from earlier work
[8] = system: a panel of cancer cell lines; conditions: read-out: cytotoxic activity IC50; cited from earlier work
[9] = system: HDAC2; conditions: cited from earlier work
[10] = system: HDAC1; conditions: cited from earlier work
[11] = system: 20 kinases; design: method as in PMID 31655429; conditions: ALK1, CDK-2/cyclin A1, DYRK3, GSK3 alpha, NEK1; cited from earlier work
[12] = system: MCF-7 cells; design: method as in PMID 31655429; conditions: 1 µM, 24 h; control 17.3%; cited from earlier work
[13] = molecular target: T3, CDK-2 (Homo sapiens, UniProt P24941); design: method as in PMID 17064068; conditions: read-out: IC50 against CDK-2; cited from earlier work
T3 construct: purchased Promega, Madison, WI

[14] = system: VEGFR-2; design: method as in PMID 24890652; conditions: cited from earlier work
[15] = system: tubulin assembly; design: method as in PMID 24890652; conditions: cited from earlier work

For `Cc1ccc(NC(=O)c2ccc(CN3CCN(C)CC3)cc2)cc1Nc1nccc(-c2cccnc2)n1` [Imatinib, reference compound], the inhibition at 10 µM [1] was 38%.
In the case of `N#Cc1c(/N=C/c2ccccc2)c(C(=O)Nc2ccc(Br)cc2)n2c1CCC2` [9b], the IC50 [2] is listed as 0.5 ± 0.15 µM, the IC50 [3] is listed as 4.16 ± 1.27 µM and the IC50 [4] is listed as 9 ± 0.13 µM. The IC50 [5] was 2330 nM.
With `CC(=O)O[C@H]1C(=O)[C@@]2(C)[C@H]([C@H](OC(=O)c3ccccc3)[C@]3(O)C[C@H](OC(=O)[C@H](O)[C@@H](NC(=O)c4ccccc4)c4ccccc4)C(C)=C1C3(C)C)[C@]1(OC(C)=O)CO[C@@H]1C[C@@H]2O` [paclitaxel, reference compound] the “effect on tubulin polymerisation” value [6] was “eliminated the nucleation phase I and enhanced the growth phase II”.
For `COc1cc2c(c(OC)c1OC)-c1ccc(OC)c(=O)cc1[C@@H](NCc1ccc(C(=O)Nc3ccccc3N)cc1)CC2` [compound 8], the IC50 [7] is given as 11200 nM, the IC50 [8] is given as 2 to 105 nM and the IC50 [9] is given as 6730 nM. For the same compound, the IC50 [10] was 12500 nM.
In the case of `CC(C)C/C=N/c1c(C#N)c2n(c1C(=O)Nc1ccc(Br)cc1)CCC2` [9a], the IC50 [2] is listed as 0.1 ± 0.05 µM, the IC50 [3] is listed as 0.52 ± 0.02 µM and the “inhibition% over the inhibited kinases of the panel” value [11] is listed as 3–25%. For the same compound, the “Cell cycle S phase %” value [12] was 55.6%, the IC50 [4] was 25.8 ± 0.73 µM and the IC50 [5] was 310 nM.
In the case of `Nc1n[nH]c(N)c1/N=N/c1ccc(O)cc1` [CAN508, 4-[(E)-(3,5-diamino-1H-pyrazol-4-yl)diazenyl)phenol], the IC50 [13] is listed as 3500 nM.
For `COc1ccc(N(C)c2nc(C)nc3oc(C)cc23)cc1` [compound 7], the IC50 [14] is listed as […] and the IC50 [15] is listed as 1.9 nM.
